Data from PubChem BioAssay AID1963856 (Molecular Pharmacology Branch, DTP, NCI, 2024).

Tested on: LG0567-F671-PDC KRAS tumor spheroid viability
Experiment: Anticancer human tumor LG0567-F671-PDC patient-derived lung adenocarcinoma cell line growth inhibition [KRAS2]
Conditions: spheroids with HUVEC and MSC; for viability, T/C: stronger effect = lower value
Procedure, shortened: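 KRAS-mutant tumor cells were grown as spheroids with HUVEC endothelial cells and human MSCs as stroma. Targeted agents were tested alone and with KRAS pathway inhibitors. Doses started at or near clinical Cmax, or 10 microM, descending half-log.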

[1] = curve of first compound, second compound 0.1 µM
[2] = curve of first compound, second compound 0.316 µM
[3] = curve of first compound, second compound 1 µM
[4] = curve of first compound, second compound 3.16 µM
[5] = curve of first compound, second compound 10 µM
[6] = second compound 0.1 µM, first compound 0.0316 µM
[7] = second compound 0.1 µM, first compound 0.1 µM
[8] = second compound 0.316 µM, first compound 0.0316 µM
[9] = second compound 0.316 µM, first compound 0.1 µM
[10] = second compound 1 µM, first compound 0.0316 µM
[11] = second compound 1 µM, first compound 0.1 µM
[12] = second compound 3.16 µM, first compound 0.0316 µM
[13] = second compound 3.16 µM, first compound 0.1 µM
[14] = second compound 10 µM, first compound 0.0316 µM
[15] = second compound 10 µM, first compound 0.1 µM
[16] = second compound 0.1 µM, first compound 0.316 µM
[17] = second compound 0.1 µM, first compound 1 µM
[18] = second compound 0.1 µM, first compound 3.16 µM
[19] = second compound 0.1 µM, first compound 10 µM
[20] = second compound 0.316 µM, first compound 0.316 µM
[21] = second compound 0.316 µM, first compound 1 µM
[22] = second compound 0.316 µM, first compound 3.16 µM
[23] = second compound 0.316 µM, first compound 10 µM
[24] = second compound 1 µM, first compound 0.316 µM
[25] = second compound 1 µM, first compound 1 µM
[26] = second compound 1 µM, first compound 3.16 µM
[27] = second compound 1 µM, first compound 10 µM
[28] = second compound 3.16 µM, first compound 0.316 µM
[29] = second compound 3.16 µM, first compound 1 µM
[30] = second compound 3.16 µM, first compound 3.16 µM
[31] = second compound 3.16 µM, first compound 10 µM
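Note: drug exposure lasted seven days after spheroids formed for three days.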
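Throughout, for viability, T/C: 100% = DMSO vehicle control viability.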

CC(C)n1nc(-c2ccc3oc(N)nc3c2)c2c(N)ncnc21 + C=CC(=O)N1CCN(c2nc(=O)n(-c3c(C)ccnc3C(C)C)c3nc(-c4c(O)cccc4F)c(F)cc23)C(C)C1
IC50 [1]: < 0.316 nM
IC50 [2]: < 0.316 nM
IC50 [3]: < 0.316 nM
IC50 [4]: < 0.316 nM
IC50 [5]: < 0.316 nM
viability, T/C (second compound 0.1 µM, first compound 0.000316 µM): 21.4%
viability, T/C (second compound 0.1 µM, first compound 0.001 µM): 17.1%
viability, T/C (second compound 0.1 µM, first compound 0.00316 µM): 14.8%
viability, T/C (second compound 0.1 µM, first compound 0.01 µM): 11.4%
viability, T/C [6]: 9.02%
viability, T/C [7]: 8.13%
viability, T/C (second compound 0.316 µM, first compound 0.000316 µM): 20.6%
viability, T/C (second compound 0.316 µM, first compound 0.001 µM): 20%
viability, T/C (second compound 0.316 µM, first compound 0.00316 µM): 17.2%
viability, T/C (second compound 0.316 µM, first compound 0.01 µM): 11%
viability, T/C [8]: 8.62%
viability, T/C [9]: 7.08%
viability, T/C (second compound 1 µM, first compound 0.000316 µM): 23.9%
viability, T/C (second compound 1 µM, first compound 0.001 µM): 14.5%
viability, T/C (second compound 1 µM, first compound 0.00316 µM): 14%
viability, T/C (second compound 1 µM, first compound 0.01 µM): 10.8%
viability, T/C [10]: 8.47%
viability, T/C [11]: 6.2%
viability, T/C (second compound 3.16 µM, first compound 0.000316 µM): 20.2%
viability, T/C (second compound 3.16 µM, first compound 0.001 µM): 15.8%
viability, T/C (second compound 3.16 µM, first compound 0.00316 µM): 12.9%
viability, T/C (second compound 3.16 µM, first compound 0.01 µM): 10.2%
viability, T/C [12]: 7.41%
viability, T/C [13]: 8.01%
viability, T/C (second compound 10 µM, first compound 0.000316 µM): 20.3%
viability, T/C (second compound 10 µM, first compound 0.001 µM): 16.8%
viability, T/C (second compound 10 µM, first compound 0.00316 µM): 13.4%
viability, T/C (second compound 10 µM, first compound 0.01 µM): 13.1%
viability, T/C [14]: 10.9%
viability, T/C [15]: 10.3%

COc1cc2nccc(Oc3ccc(NC(=O)C4(C(=O)Nc5ccc(F)cc5)CC4)cc3)c2cc1OC + CC1OCC2(CCN(c3cnc(Sc4ccnc(N)c4Cl)c(N)n3)CC2)C1N
IC50 [1]: < 31.6 nM
IC50 [2]: < 31.6 nM
IC50 [3]: < 31.6 nM
IC50 [4]: < 31.6 nM
IC50 [5]: < 31.6 nM
viability, T/C [6]: 54%
viability, T/C [7]: 50.4%
viability, T/C [16]: 33.3%
viability, T/C [17]: 31.5%
viability, T/C [18]: 30.3%
viability, T/C [19]: 88.4%
viability, T/C [8]: 33%
viability, T/C [9]: 30.9%
viability, T/C [20]: 26.6%
viability, T/C [21]: 20.9%
viability, T/C [22]: 13.3%
viability, T/C [23]: 69.7%
viability, T/C [10]: 25.7%
viability, T/C [11]: 22.8%
viability, T/C [24]: 18.4%
viability, T/C [25]: 13.8%
viability, T/C [26]: 9.19%
viability, T/C [27]: 43.3%
viability, T/C [12]: 19.6%
viability, T/C [13]: 15.2%
viability, T/C [28]: 8.47%
viability, T/C [29]: 6.57%
viability, T/C [30]: 6.28%
viability, T/C [31]: 25.8%
viability, T/C [14]: 13.1%
viability, T/C [15]: 9.16%
viability, T/C (second compound 10 µM, first compound 0.316 µM): 8.96%
viability, T/C (second compound 10 µM, first compound 1 µM): 6.33%
viability, T/C (second compound 10 µM, first compound 3.16 µM): 3.72%
viability, T/C (second compound 10 µM, first compound 10 µM): 23.3%

CC1(C)CCC(CN2CCN(c3ccc(C(=O)NS(=O)(=O)c4ccc(NCC5CCOCC5)c([N+](=O)[O-])c4)c(Oc4cnc5[nH]ccc5c4)c3)CC2)=C(c2ccc(Cl)cc2)C1
viability, T/C (compound 0.0316 µM): 98.2% [middle of 5 runs]
viability, T/C (compound 0.1 µM): 94.7% [middle of 5 runs]
viability, T/C (compound 0.316 µM): 87% [middle of 5 runs]
viability, T/C (compound 1 µM): 89.9% [middle of 5 runs]
viability, T/C (compound 3.16 µM): 45.9% [middle of 5 runs]
viability, T/C (compound 10 µM): 12.4% [middle of 5 runs]
IC50 (curve of compound): 2.84 µM [middle of 5 runs]

CC(C)NCC(C(=O)N1CCN(c2ncnc3c2C(C)CC3O)CC1)c1ccc(Cl)cc1 (configuration not stated) + C=CC(=O)N1CCN(c2nc(OCC3CCCN3C)nc3c2CCN(c2cccc4cccc(C)c24)C3)CC1CC#N
IC50 (curve of first compound, second compound 0.0316 µM): < 31.6 nM
IC50 [1]: < 31.6 nM
IC50 [2]: < 31.6 nM
IC50 [3]: < 31.6 nM
IC50 [4]: < 31.6 nM
viability, T/C (second compound 0.0316 µM, first compound 0.0316 µM): 36%
viability, T/C (second compound 0.0316 µM, first compound 0.1 µM): 33.7%
viability, T/C (second compound 0.0316 µM, first compound 0.316 µM): 24.6%
viability, T/C (second compound 0.0316 µM, first compound 1 µM): 22.8%
viability, T/C (second compound 0.0316 µM, first compound 3.16 µM): 22.4%
viability, T/C (second compound 0.0316 µM, first compound 10 µM): 19.8%
viability, T/C [6]: 28.5%
viability, T/C [7]: 27.5%
viability, T/C [16]: 18.6%
viability, T/C [17]: 20.1%
viability, T/C [18]: 17%
viability, T/C [19]: 13.4%
viability, T/C [8]: 33.9%
viability, T/C [9]: 29.3%
viability, T/C [20]: 21%
viability, T/C [21]: 19.5%
viability, T/C [22]: 18.6%
viability, T/C [23]: 15.4%
viability, T/C [10]: 38.6%
viability, T/C [11]: 32.3%
viability, T/C [24]: 24.6%
viability, T/C [25]: 18.2%
viability, T/C [26]: 15.3%
viability, T/C [27]: 13.3%
viability, T/C [12]: 8.92%
viability, T/C [13]: 7.61%
viability, T/C [28]: 4.92%
viability, T/C [29]: 2.79%
viability, T/C [30]: 3.43%
viability, T/C [31]: 0.37%
